From paper PMC10027976, “Phylogeny-guided genome mining of roseocin family lantibiotics to generate improved variants of roseocin” (AMB Express, 2023)
Where no end group is shown, it is not given here.

Legend:
MSSA ATCC 25923 = assay: MIC by micro broth-dilution method; format: cell-based, Staphylococcus aureus; settings: for MIC against MSSA ATCC 25923: micro broth-dilution, Mueller Hinton Broth, 2 × 10^5 CFU/mL mixed 1:1 with lantibiotic, BSA-treated 96-well plates, overnight 37 °C, lowest concentration with no visible growth, Rosα (variant) with wild-type Rosβ
Procedure: (§1) The minimum inhibitory concentration of wild-type roseocin and its variants was determined with micro broth-dilution method. Sterile 96-well microtiter plates were treated with 200 µL of 1% (w/v) bovine serum albumin (BSA) in 1 × phosphate-buffered saline (PBS) solution at 37 °C for 30 min. After this, wells were washed with 1 × PBS to remove excess BSA (Ellis et al. [2020]). Log phase culture was diluted with Mueller Hinton Broth (MHB) to obtain 2 × 10^5 CFU/mL. The bacterial suspension and the lantibiotic were added to 96-well microplates at a ratio of 1:1. The microplates were incubated overnight at 37 °C. The lowest concentration at which no visible growth was observed, was considered MIC.

[1] = system: M. luteus ATCC 10240 and methicillin-sensitive Staphylococcus aureus (MSSA) ATCC 25923; assay: MIC comparison of variants with wild-type roseocin, both strains; format: cell-based, Micrococcus luteus; Staphylococcus aureus; settings: M. luteus ATCC 10240 and MSSA ATCC 25923, in combination with wild-type Rosβ
Procedure: as §1

M. luteus ATCC 10240 [2] = assay: MIC by micro broth-dilution method; format: cell-based, Micrococcus luteus; settings: for MIC against M. luteus ATCC 10240: micro broth-dilution, Mueller Hinton Broth, 2 × 10^5 CFU/mL mixed 1:1 with lantibiotic, BSA-treated 96-well plates, overnight 37 °C, lowest concentration with no visible growth, Rosα (variant) with wild-type Rosβ
Procedure: as §1

M. luteus ATCC 10240 [3] = assay: Agar diffusion assay in synergism with Rosβ; format: cell-based, Micrococcus luteus; settings: nutrient agar, leader removed with proteinase K, 4 μg, 2 μg and 1 μg with equal amount of Rosβ
Procedure: Overnight 10 mL culture of Micrococcus luteus (ATCC 10240), grown in nutrient broth, was diluted to 0.1 OD600 in the fresh 5 mL nutrient broth. The 1 μL/mL of the culture was used for the inoculation in nutrient agar before plating. The culture was added in bearable to touch media. The nutrient agar culture plates were used for checking the activity of Rosα variant peptides and wild type as a positive control, in synergism with Rosβ in a 1:1 ratio.
Alpha variant precursor peptides were cleaved with proteinase K to obtain their bioactive form, as described earlier (Singh et al. 2020) and were spotted with Rosβ in nutrient agar culture plate, in a dose-dependent manner i.e 1 µg, 2 µg, 4 µg (each).

[4] = compared with wild-type Rosα, in combination with wild-type Rosβ

Substance | MIC against MSSA ATCC 25923 (MSSA ATCC 25923) | Change of MIC / inhibitory activity relative to wild-type roseocin (in words) [1] | Change of MIC / inhibitory activity relative to wild-type roseocin (in words) ([1]; listed as RosαL8W) | Fold change of MIC against M. luteus ATCC 10240 relative to wild-type (M. luteus ATCC 10240 [2]; [4]) | MIC against M. luteus ATCC 10240 (M. luteus ATCC 10240 [2]) | Fold change of MIC against MSSA ATCC 25923 relative to wild-type (MSSA ATCC 25923; [4]) | Zone of inhibition compared to wild type Rosα (M. luteus ATCC 10240 [3]) | Change of MIC / inhibitory activity relative to wild-type roseocin (in words) ([1]; listed as RosαL8F)
GAGSGVLGTWGCCSCLPWYSGWTVCGLACNPGKPCKN (also: bicyclic or more (positions not given here)) [Roseocin L8W, Rosα variant L8W, modified by RosM, tested in combination with wild-type Rosβ] | 2 µM | improvement in the MIC | significantly improved inhibitory activity | two-fold lower MIC | 0.25 µM | – | – | –
INGAGSGVLGTLGCCSCLPWYSGWTVCGLACNPGKPCKN (also: bicyclic or more (positions not given here)) [Roseocin (wild-type)] | 2 µM | – | – | – | 0.5 µM | – | – | –
NGAGSGVLGTFGCCSCLPWYSGWTVCGLACNPGKPCKN (also: bicyclic or more (positions not given here)) [Roseocin L8F, Rosα variant L8F, modified by RosM, tested in combination with wild-type Rosβ] | 0.5 µM | improvement in the MIC | – | – | 0.5 µM | four-fold lower MIC | improved significantly | significantly improved inhibitory activity
NGAGSGVLGTLGCCSCLPWYSGWTQCGLACNPGKPCKN (also: bicyclic or more (positions not given here)) [Roseocin V22Q, Rosα variant V22Q, modified by RosM, tested in combination with wild-type Rosβ] | > 16 µM | loss of potency | – | – | > 8 µM | – | – | –
NGAGSGVLGTLGCCWCLPWYSGWTVCGLACNPGKPCKN (also: bicyclic or more (positions not given here)) [Roseocin S12W, Rosα variant S12W, modified by RosM, tested in combination with wild-type Rosβ] | > 16 µM | no improvement | – | – | 0.5 µM | – | – | –
Nisin [reference compound] | 2 µM | – | – | – | 0.0625 µM | – | – | –
